Experimental data published in ChEMBL document CHEMBL1201862, “PubChem BioAssay data set” (2004).
The source made the active and inactive calls.

Legend:
HEK293 [1] = test: NOD2 signaling inhibitors in MDP-stimulated cells, cell-based, uHTS, luminescence (AID 2001); type: functional; conditions: Homo sapiens
[2] = A375 melanoma cell cytotoxicity, dose response, counter-screen for MITF inhibitor project, CellTiter-Glo luminescence, dry powder, set 2 (AID 624489); type: functional, cell-based; conditions: A-375;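 further: actives are compounds lowering A375 viability meaning general cytotoxicity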
HEK293 [3] = test: NOD1 signaling inhibitors, primary screen, cell-based, luminescence, uHTS (AID 1578); type: functional; conditions: Homo sapiens
HEK293 [4] = test: cells; type: functional, cell-based; conditions: Homo sapiens
HEK293 [5] = test: cells; type: functional, cell-based; conditions: Homo sapiens; remark: listed apart in the source
[6] = Fluorescence-based cell-based high throughput dose response assay for inhibitors of the interaction of nucleotide-binding oligomerization domain containing 2 (NOD2) and the receptor-interacting serine-threonine kinase 2 (RIPK2).; type: functional, Homo sapiens; conditions: Homo sapiens
[7] = target: T1, Sphingosine 1-phosphate receptor 4 (Homo sapiens, UniProt O95977); test: Late stage fluorescence dose response cell-based screening assay for antagonists of the Sphingosine 1-Phosphate Receptor 4 (S1P4). [Related pubchem assays: 1524 (Confirmation screen (S1P4 antagonists).), 1510 (Primary screen (S1P4 antagonists).), 1853 (Summary AID (S1P4 antagonists).), 1692 (Dose response screen (S1P4 antagonists).)]; type: functional
T1 sequence (O95977 whole entry): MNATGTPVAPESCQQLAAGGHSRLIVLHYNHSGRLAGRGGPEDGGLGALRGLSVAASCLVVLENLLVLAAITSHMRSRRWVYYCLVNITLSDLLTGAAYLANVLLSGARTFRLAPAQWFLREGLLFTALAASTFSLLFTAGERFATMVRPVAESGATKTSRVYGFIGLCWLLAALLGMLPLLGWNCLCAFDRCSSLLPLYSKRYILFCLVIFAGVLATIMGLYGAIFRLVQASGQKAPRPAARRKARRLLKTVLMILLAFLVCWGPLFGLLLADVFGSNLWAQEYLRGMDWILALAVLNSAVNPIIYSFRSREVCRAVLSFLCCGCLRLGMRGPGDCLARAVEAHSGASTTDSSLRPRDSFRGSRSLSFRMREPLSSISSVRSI

[8] = HeLa cell cytotoxicity, dose response, cytotoxicity control for MgcRacGAP inhibitor project (AID 624300); type: functional
Fatty acid synthase = Fatty acid synthase (Homo sapiens, UniProt P49327); test: FAS thioesterase domain inhibitors, dose response, biochemical, kinetic fluorescence intensity (AID 624326); type: functional;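 further: rate of fluorescence rise from hydrolysis of a fluorogenic O-methyl fluorescein ester substrate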
[9] = target: T2, Heat shock factor protein 1 (Mus musculus, UniProt P38532); test: inhibition of MG132-induced HSE-luciferase signal, confirmation, cell-based, NIH3T3, luminescence, dose retest (AID 2382); type: functional;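 further: NIH3T3 fibroblasts with HSF1-driven luciferase reporter stressed by proteasome inhibitor MG132; luminescence from HSF1-driven luciferase expression after 8 hours of MG132 stress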
T2 sequence (P38532 whole entry): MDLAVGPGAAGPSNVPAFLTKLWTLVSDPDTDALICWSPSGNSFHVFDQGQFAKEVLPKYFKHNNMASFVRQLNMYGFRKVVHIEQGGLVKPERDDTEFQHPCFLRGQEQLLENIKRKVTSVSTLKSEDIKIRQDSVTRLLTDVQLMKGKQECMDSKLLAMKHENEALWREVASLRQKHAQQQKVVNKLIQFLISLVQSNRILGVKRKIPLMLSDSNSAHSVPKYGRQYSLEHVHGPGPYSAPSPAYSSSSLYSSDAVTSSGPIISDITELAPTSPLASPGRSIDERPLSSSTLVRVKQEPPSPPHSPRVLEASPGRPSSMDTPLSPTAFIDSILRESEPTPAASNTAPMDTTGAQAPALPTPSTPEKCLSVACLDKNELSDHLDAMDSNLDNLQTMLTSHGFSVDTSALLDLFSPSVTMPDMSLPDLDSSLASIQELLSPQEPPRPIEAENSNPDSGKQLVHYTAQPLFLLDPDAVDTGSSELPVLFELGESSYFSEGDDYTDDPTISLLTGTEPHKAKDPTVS

[10] = target: T2, Heat shock factor protein 1; test: HSF1 potentiators in luciferase reporter cells, confirmation, cell-based, NIH3T3, luminescence, dose retest (AID 435004); type: functional;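 further: stress induced by proteasome inhibitor MG132 added 30 min after compound; luciferase reporter driven by HSF1 response element in NIH3T3 cells; actives raise luminescence as potentiators of the MG132 stress response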
[11] = target: Cystic fibrosis transmembrane conductance regulator/Golgi-associated PDZ and coiled-coil motif-containing protein (Homo sapiens, UniProt P13569+Q9HD26); test: CAL PDZ peptide-binding inhibitors, dose response, biochemical, fluorescence polarization, Cerulean-tagged CAL PDZ, cherry-picks (AID 504773)
[12] = target: Polyadenylate-binding protein 1 (Homo sapiens, UniProt P11940); test: PABP1 MLLE–PAM2 binding inhibitor potency, dose response, biochemical, fluorescence polarization, FITC-PAM2 peptide (AID 602259); type: functional; conditions: read-out: IC50_Mean
[13] = target: T3, Apoptotic protease-activating factor 1 (Homo sapiens, UniProt O14727); type: functional
T3 sequence (O14727 whole entry): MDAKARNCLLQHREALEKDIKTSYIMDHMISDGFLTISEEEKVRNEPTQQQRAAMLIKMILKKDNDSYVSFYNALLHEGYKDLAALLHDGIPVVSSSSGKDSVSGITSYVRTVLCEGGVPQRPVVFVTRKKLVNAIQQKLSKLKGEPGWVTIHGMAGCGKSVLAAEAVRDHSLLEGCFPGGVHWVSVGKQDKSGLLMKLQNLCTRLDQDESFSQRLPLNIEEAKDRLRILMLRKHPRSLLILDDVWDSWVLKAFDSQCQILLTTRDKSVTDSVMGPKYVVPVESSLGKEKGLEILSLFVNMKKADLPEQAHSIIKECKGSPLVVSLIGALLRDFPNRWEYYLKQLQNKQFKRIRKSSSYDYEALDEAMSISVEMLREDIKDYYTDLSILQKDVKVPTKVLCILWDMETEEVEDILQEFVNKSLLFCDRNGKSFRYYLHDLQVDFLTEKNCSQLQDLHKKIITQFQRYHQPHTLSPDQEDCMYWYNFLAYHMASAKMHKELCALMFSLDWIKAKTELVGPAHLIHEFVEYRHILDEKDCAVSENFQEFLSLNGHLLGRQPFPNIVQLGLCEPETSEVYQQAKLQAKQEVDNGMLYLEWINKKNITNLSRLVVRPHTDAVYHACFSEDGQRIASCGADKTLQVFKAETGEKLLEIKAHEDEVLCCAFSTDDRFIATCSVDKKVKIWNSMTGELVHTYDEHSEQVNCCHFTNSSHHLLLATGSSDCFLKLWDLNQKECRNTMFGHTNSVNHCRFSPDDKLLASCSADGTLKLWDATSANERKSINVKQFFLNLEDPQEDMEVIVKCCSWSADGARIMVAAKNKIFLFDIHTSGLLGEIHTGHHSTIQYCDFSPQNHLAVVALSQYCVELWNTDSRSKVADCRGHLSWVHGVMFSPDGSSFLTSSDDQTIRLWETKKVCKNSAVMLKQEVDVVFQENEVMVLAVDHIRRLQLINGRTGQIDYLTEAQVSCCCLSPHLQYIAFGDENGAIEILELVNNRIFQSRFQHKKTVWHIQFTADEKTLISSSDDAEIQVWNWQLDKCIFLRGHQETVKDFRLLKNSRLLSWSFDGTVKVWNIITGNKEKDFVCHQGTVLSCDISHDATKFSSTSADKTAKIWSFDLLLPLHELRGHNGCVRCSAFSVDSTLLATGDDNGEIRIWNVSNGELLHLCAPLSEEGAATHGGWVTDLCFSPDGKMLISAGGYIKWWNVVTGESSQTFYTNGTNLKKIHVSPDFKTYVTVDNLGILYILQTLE

Sequence of Polyadenylate-binding protein 1 (P11940 whole entry): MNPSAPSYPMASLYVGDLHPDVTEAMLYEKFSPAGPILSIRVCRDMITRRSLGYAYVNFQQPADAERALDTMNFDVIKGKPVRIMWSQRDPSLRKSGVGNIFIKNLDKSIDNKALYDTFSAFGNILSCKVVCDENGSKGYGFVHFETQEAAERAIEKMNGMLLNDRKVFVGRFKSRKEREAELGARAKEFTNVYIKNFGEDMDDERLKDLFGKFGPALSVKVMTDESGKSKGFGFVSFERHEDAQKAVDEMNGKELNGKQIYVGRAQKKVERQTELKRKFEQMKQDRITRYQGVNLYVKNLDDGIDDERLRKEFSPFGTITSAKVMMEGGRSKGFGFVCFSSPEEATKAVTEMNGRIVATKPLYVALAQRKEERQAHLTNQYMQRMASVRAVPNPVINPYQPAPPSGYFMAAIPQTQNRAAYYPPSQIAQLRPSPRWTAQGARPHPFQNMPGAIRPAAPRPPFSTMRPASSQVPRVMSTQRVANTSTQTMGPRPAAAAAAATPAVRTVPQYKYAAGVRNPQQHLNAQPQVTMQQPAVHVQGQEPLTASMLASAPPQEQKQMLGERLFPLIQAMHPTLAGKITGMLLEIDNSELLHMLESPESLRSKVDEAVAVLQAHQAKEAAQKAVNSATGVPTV
Sequence of Fatty acid synthase (P49327 whole entry, the tested form may be a part): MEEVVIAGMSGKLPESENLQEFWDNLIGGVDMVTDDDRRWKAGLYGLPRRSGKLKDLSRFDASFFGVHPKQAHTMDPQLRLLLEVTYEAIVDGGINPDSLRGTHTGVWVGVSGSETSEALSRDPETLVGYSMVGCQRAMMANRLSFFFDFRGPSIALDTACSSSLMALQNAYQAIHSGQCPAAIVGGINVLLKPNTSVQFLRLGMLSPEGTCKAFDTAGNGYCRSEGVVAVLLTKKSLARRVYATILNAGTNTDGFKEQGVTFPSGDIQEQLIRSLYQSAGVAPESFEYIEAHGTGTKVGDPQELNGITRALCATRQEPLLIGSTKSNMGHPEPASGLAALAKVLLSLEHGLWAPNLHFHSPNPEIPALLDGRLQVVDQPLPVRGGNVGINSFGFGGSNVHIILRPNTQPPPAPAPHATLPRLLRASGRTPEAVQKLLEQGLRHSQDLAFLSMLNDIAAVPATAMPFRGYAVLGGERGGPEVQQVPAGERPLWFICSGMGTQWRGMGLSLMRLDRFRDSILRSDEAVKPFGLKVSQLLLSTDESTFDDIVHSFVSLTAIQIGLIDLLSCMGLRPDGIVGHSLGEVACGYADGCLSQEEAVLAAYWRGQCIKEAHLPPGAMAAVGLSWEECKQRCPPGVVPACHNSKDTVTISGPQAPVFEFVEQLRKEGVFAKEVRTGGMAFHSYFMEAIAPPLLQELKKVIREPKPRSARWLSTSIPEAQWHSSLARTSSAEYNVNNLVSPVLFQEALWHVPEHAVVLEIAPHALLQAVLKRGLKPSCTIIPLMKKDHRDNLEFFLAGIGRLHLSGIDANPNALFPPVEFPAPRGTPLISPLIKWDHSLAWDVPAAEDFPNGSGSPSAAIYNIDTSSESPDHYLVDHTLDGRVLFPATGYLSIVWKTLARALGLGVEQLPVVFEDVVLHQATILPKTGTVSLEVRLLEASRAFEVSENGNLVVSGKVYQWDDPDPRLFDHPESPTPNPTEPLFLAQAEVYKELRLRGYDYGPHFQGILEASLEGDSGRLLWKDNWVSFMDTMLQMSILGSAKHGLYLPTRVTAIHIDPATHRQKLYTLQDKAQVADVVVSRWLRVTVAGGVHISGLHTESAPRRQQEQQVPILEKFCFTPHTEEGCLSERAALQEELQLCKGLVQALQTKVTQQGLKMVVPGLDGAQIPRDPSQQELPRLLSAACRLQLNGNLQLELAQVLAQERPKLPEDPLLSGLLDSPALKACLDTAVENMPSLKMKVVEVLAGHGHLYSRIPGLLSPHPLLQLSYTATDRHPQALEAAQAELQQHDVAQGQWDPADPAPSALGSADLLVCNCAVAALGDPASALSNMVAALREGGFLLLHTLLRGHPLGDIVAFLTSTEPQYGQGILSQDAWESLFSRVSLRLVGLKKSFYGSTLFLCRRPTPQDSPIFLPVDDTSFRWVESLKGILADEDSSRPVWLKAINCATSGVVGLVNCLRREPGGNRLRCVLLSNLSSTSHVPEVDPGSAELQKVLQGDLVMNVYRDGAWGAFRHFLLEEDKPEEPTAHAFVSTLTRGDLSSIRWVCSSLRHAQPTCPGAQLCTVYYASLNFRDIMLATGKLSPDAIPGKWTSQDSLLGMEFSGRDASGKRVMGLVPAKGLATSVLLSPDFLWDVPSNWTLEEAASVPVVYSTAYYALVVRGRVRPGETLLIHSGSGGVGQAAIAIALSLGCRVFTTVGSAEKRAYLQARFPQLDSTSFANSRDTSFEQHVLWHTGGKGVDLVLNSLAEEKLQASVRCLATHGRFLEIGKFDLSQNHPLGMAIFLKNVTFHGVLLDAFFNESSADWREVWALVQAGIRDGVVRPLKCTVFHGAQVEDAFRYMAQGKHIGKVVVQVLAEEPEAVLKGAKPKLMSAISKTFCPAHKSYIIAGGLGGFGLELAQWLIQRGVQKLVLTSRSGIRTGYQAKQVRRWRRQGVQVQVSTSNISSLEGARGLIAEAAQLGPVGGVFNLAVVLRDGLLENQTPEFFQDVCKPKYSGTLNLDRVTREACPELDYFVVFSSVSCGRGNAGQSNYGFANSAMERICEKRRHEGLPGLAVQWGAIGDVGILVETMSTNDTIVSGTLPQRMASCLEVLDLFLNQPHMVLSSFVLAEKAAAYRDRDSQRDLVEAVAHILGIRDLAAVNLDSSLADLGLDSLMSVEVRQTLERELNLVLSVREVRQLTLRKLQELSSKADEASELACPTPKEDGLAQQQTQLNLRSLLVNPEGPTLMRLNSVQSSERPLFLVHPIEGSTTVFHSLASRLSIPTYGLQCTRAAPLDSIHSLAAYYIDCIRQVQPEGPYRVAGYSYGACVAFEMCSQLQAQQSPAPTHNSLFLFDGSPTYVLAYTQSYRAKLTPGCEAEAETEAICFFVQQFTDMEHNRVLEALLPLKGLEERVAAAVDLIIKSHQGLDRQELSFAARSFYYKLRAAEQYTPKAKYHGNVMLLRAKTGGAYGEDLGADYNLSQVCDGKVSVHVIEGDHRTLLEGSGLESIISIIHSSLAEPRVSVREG
Sequence of Cystic fibrosis transmembrane conductance regulator/Golgi-associated PDZ and coiled-coil motif-containing protein (P13569 whole entry, other chains not shown): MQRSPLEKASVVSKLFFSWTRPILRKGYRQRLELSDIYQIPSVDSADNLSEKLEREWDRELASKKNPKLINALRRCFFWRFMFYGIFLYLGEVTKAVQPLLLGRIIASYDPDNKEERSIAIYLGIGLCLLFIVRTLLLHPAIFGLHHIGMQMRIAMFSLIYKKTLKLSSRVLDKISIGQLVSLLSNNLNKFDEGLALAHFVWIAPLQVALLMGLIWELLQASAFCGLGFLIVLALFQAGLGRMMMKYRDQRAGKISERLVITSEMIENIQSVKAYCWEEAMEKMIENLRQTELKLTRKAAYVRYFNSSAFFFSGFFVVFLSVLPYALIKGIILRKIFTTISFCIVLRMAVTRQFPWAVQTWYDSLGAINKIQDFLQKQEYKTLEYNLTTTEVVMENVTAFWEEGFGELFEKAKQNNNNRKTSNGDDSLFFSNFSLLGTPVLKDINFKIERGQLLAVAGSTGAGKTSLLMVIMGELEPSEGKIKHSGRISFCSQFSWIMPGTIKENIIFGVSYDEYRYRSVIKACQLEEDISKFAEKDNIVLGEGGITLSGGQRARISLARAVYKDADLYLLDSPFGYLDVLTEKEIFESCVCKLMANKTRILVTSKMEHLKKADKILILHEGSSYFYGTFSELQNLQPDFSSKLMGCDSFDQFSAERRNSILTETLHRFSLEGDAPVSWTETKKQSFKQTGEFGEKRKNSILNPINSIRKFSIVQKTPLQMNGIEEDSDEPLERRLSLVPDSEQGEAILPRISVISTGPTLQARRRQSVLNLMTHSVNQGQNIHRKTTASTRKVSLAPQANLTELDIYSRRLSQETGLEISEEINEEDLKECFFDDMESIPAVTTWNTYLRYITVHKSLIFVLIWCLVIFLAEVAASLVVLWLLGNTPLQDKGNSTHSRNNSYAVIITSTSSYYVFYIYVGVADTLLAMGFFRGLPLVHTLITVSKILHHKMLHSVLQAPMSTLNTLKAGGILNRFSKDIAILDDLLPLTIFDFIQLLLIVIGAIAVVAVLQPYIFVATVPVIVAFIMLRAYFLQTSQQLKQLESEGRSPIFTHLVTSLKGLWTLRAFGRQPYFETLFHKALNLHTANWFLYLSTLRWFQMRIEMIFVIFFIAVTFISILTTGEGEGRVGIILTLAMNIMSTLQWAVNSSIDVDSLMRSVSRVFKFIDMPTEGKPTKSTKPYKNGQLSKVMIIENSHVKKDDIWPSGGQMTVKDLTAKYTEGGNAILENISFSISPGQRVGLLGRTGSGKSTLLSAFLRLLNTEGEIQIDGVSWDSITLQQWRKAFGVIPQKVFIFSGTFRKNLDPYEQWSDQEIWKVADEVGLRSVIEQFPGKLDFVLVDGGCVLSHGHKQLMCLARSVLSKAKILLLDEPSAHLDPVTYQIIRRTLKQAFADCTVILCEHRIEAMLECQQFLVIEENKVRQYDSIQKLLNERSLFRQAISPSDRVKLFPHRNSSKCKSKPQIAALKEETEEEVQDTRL

With `O=C(CNc1cccc2ccccc12)N/N=C/c1ccc([N+](=O)[O-])o1` the IC50 (HEK293 [1]) was 11.5 µM (inactive), the AC50 [2] was > 70 µM (inactive) and the EC50 (cells) was 0.064 µM (active). The EC50 (HEK293 [3]) was 3.28 µM (active), the IC50 (HEK293 [4]) was 14.3 µM (active) and the IC50 (HEK293 [5]) was 15.8 µM (active).
In the case of `Cc1ccc(NC(=O)C2=C(c3ccccc3)S(=O)(=O)CCS2(=O)=O)cc1`, the IC50 [6] is reported as 2.73 µM (active), the IC50 [7] is reported as 3.72 µM (not active) and the CC50 [8] is reported as 100 µM (active). For the same compound, the IC50 (Fatty acid synthase) was 1.61 µM (active) and the EC50 [9] was 6.3 µM (active).
For `O=C(O)CSc1cc(NS(=O)(=O)c2ccc(Br)cc2)c2ccccc2c1O`, the EC50 [10] was > 260 µM (inactive), the AC50 [11] was 28.4 µM (active) and the IC50 [12] was > 66 µM (inactive).
In the case of `O=C1NC(=S)N/C1=C/c1cc2c(cc1[N+](=O)[O-])OCO2`, the IC50 [13] is reported as 12.9 µM (active).
